Measured values published in patent publication US8883789B2, “Piperazine derivatives and their use as positive allosteric modulators of mGluR5 receptors” (Boehringer Ingelheim International GmbH, priority 2011, dated 2014).
pEC50: −log10 of the molar value.

These compounds were tested against T1, human recombinant mGluR5 (Homo sapiens, UniProt P41594) (assay: positive modulation of mGluR5, calcium based FLIPR assay). Details: HEK 293 cell line expressing human recombinant mGluR5; Ca2+ peak height after glutamate at approximately 5% basal stimulation; nonlinear regression.
T1 construct: expressed in transfected cells; hygromycin and geneticin selection
Outline: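 HEK293 cells with tetracycline-free induction, Calcium-4 dye-loaded in Ringer pH 7.4. Compound added 5 min before glutamate at ~5% of maximal effect, 1% DMSO. EC50 from peak Ca2+ fluorescence, normalized to basal glutamate (100%) and 10 μM CDPPB (200%), via nonlinear regression.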

T1 sequence (P41594 21-1212): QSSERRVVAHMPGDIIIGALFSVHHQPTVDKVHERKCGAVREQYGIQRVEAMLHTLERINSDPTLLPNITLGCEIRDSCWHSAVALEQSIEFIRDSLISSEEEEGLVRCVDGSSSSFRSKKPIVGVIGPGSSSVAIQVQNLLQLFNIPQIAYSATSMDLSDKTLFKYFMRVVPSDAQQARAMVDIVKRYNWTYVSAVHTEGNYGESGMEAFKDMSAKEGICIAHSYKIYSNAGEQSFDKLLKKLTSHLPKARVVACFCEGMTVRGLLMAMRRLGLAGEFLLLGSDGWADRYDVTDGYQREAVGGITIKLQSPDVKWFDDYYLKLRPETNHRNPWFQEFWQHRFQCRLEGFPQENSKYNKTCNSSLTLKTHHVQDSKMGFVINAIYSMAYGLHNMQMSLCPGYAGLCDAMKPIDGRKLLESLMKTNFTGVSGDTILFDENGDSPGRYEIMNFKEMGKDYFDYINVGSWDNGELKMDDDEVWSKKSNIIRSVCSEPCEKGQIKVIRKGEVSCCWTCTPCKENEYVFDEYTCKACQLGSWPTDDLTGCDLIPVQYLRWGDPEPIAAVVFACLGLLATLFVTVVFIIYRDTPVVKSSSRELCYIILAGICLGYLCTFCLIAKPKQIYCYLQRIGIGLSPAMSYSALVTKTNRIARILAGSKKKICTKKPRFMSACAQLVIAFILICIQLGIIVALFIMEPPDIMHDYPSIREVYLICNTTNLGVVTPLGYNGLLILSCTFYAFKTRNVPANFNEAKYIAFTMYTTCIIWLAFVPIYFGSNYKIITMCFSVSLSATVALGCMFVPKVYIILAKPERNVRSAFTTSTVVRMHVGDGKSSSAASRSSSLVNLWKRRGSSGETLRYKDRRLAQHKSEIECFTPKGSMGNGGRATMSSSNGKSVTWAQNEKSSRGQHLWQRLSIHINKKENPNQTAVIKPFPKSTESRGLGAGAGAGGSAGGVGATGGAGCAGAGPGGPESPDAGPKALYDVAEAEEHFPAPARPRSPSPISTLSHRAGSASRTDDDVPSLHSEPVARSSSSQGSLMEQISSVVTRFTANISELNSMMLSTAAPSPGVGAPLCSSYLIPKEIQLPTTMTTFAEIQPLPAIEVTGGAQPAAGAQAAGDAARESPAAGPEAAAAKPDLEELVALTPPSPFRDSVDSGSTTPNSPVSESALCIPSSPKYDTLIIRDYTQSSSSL

Structure (SMILES)	pEC50
COC(C)c1cccc(C(=O)N2CCN(C(=O)c3ncn(-c4ccccc4)n3)C(C)(C)C2)c1 (stereo not drawn) [Example 116]	6.41
Cc1c(C(=O)N2CCN(C(=O)c3ncn(-c4cccc(Cl)c4)n3)C[C@H]2C)oc2ccc(F)cc12 [Example 250]	6.43
Cc1cc(C(=O)N2CCN(C(=O)c3ncn(-c4cccc(Cl)c4)n3)C(C)(C)C2)ccc1F [Example 64]	6.58
CC1CN(C(=O)c2ncn(-c3cccc(Cl)c3)n2)CCN1C(=O)c1ccc2ccn(C)c2c1 (stereo not drawn) [Example 222]	6.53
CCc1ccc(C(=O)N2CCN(C(=O)c3ncn(-c4cccc(Cl)c4)n3)C(C)(C)C2)s1 [Example 83]	7.19
O=C(c1cccc(Cl)c1)N1CCN(C(=O)c2ncn(-c3ccccc3)n2)C2(CCCC2)C1 [Example 309]	6.84
CC1(C)CN(C(=O)c2cccc(-c3ccc(C#N)cc3)c2)CCN1C(=O)c1ncn(-c2cccc(Cl)c2)n1 [Example 78]	6.84
CC1(C)CN(C(=O)c2cccc(C(F)F)c2)CCN1C(=O)c1ncn(-c2ccccc2)n1 [Example 135]	7.33
Cc1c(C(=O)N2CCN(C(=O)c3ncn(-c4cccc(Cl)c4)n3)C(C)C2)oc2ccccc12 (stereo not drawn) [Example 279]	6.28
CC1CN(C(=O)c2ncn(-c3cccc(Cl)c3)n2)CCN1C(=O)c1cc2c(Cl)cccc2s1 (stereo not drawn) [Example 223]	6.48
CC1(C)CN(C(=O)c2cccc(C3CC3)n2)CCN1C(=O)c1ncn(-c2cccc(Cl)c2)n1 [Example 16]	7.39
CC1CN(C(=O)c2ncn(-c3cccc(Cl)c3)n2)CCN1C(=O)c1cc(Br)c(Br)o1 (stereo not drawn) [Example 210, [1-(3-Chloro-phenyl)-1H-[1,2,4]triazol-3-yl]-[4-(4,5-dibromo-furan-2-carbonyl)-3-methyl-piperazin-1-yl]-methanone]	6.50
CC1(C)CN(C(=O)c2cc3ccccn3c2)CCN1C(=O)c1ncn(-c2cccc(Cl)c2)n1 [Example 58]	6.98
CC(C)Oc1cccc(C(=O)N2CCN(C(=O)c3ncn(-c4ccccc4)n3)C(C)(C)C2)c1 [Example 126]	7.04
Cc1cccc(C(=O)N2CCN(C(=O)c3ncn(-c4cccc(Cl)c4)n3)C(C)(C)C2)n1 [Example 39]	6.38
CC1(C)CN(C(=O)c2cc(Cl)cc(Br)c2)CCN1C(=O)c1ncn(-c2ccccc2)n1 [Example 125]	7.08
CC1(C)CN(C(=O)c2cccc(C(F)(F)F)n2)CCN1C(=O)c1ncn(-c2ccccc2)n1 [Example 101]	7.28
O=C(c1cccc(Cl)c1)N1CCN(C(=O)c2ncn(-c3cccc(Cl)c3)n2)C2(CCCC2)C1 [Example 308]	6.44
COc1cc(OC)cc(C(=O)N2CCN(C(=O)c3ncn(-c4cccc(Cl)c4)n3)CC2C)c1 (stereo not drawn) [Example 224]	6.43
CC1(C)CN(C(=O)c2cccc(Cl)c2)CCN1C(=O)c1ncn(-c2cc(F)ccc2F)n1 [Example 195]	6.00
CC(C)COc1cccc(C(=O)N2CCN(C(=O)c3ncn(-c4cccc(Cl)c4)n3)CC2C)c1 (stereo not drawn) [Example 216]	6.21
COCCOc1nc(C(=O)N2CCN(C(=O)c3ncn(-c4cccc(Cl)c4)n3)C(C)(C)C2)cc2ccccc12 [Example 34]	6.66
Cc1oc2ccc(Br)cc2c1C(=O)N1CCN(C(=O)c2ncn(-c3ccccc3)n2)C(C)(C)C1 [Example 100]	7.54

Continued, values first:

pEC50	Structure (SMILES)
6.94	CC1(C)CN(C(=O)c2cccc(-c3ccncc3)c2)CCN1C(=O)c1ncn(-c2cccc(Cl)c2)n1 [Example 30]
7.19	CC1(C)CN(C(=O)c2cccc(Cl)c2)CCN1C(=O)c1nnn(-c2cccc(Cl)c2)n1 [Example 191]
6.64	CCC1CN(C(=O)c2ncn(-c3cccc(F)c3)n2)CCN1C(=O)c1cccc(OC)n1 (stereo not drawn) [Example 259]
6.97	COCc1c(C(=O)N2CCN(C(=O)c3ncn(-c4ccccc4)n3)C(C)(C)C2)oc2ccccc12 [Example 107]
7.52	CC1(C)CN(C(=O)c2cccc(Br)c2)CCN1C(=O)c1ncn(-c2cccc(Cl)c2)n1 [Example 15]
6.80	CC1(C)CN(C(=O)c2cc3ccccc3c(OC3CCCC3)n2)CCN1C(=O)c1ncn(-c2ccccc2)n1 [Example 115]
7.27	COc1cccc2c(C)c(C(=O)N3CCN(C(=O)c4ncn(-c5cccc(Cl)c5)n4)C(C)(C)C3)oc12 [Example 68]
6.91	COc1cc(Cl)cc(C(=O)N2CCN(C(=O)c3ncn(-c4ccccc4)n3)C(C)(C)C2)c1 [Example 121]
7.82	CC1(C)CN(C(=O)c2cccc(C(F)(F)F)c2)CCN1C(=O)c1nnn(-c2ccccc2)n1 [Example 166]
7.38	CC1(C)CN(C(=O)c2cc3ccccc3c(C3CC3)n2)CCN1C(=O)c1nnn(-c2ccccc2)n1 [Example 205]
7.12	Cc1cc(C)cc(C(=O)N2CCN(C(=O)c3ncn(-c4ccccc4)n3)C(C)(C)C2)c1 [Example 113]
7.21	CC1(C)CN(C(=O)c2cc(Br)c(Br)o2)CCN1C(=O)c1ncn(-c2cccc(Cl)c2)n1 [Example 25]
7.28	CC1(C)CN(C(=O)c2cccc(C3CC3)c2)CCN1C(=O)c1ncn(-c2ccccc2)n1 [Example 136]
6.50	Cc1cccc(-n2cnc(C(=O)N3CCN(C(=O)c4c(C)oc5ccccc45)C(C)C3)n2)c1 (stereo not drawn) [Example 238]
6.98	Cc1c(C(=O)N2CCN(C(=O)c3ncn(-c4cccc(Cl)c4)n3)C(C)(C)C2)oc2c(C)cccc12 [Example 66]
6.25	CC1CN(C(=O)c2cc3ccccc3o2)CCN1C(=O)c1ncn(-c2cccc(Cl)c2)n1 (stereo not drawn) [Example 267]
7.48	CC1(C)CN(C(=O)c2cccc(C3CC3)n2)CCN1C(=O)c1ncn(-c2cccc(F)c2)n1 [Example 184]
7.57	COc1cc(Cl)cc(C(=O)N2CCN(C(=O)c3nnn(-c4cccc(F)c4)n3)C(C)(C)C2)n1 [Example 169, [4-(4-Chloro-6-methoxy-pyridine-2-carbonyl)-2,2-dimethyl-piperazin-1-yl]-[2-(3-fluoro-phenyl)-2H-tetrazol-5-yl]-methanone]
7.16	CC1(C)CN(C(=O)c2cccc(C3CCC3)n2)CCN1C(=O)c1ncn(-c2ccccc2)n1 [Example 137]
7.31	CC1(C)CN(C(=O)c2cc3ccccc3c(OCC3CC3)n2)CCN1C(=O)c1ncn(-c2ccccc2)n1 [Example 103]
6.80	CC1(C)CN(C(=O)c2cccc(Cl)c2)CCN1C(=O)c1nnn(-c2cccc(F)c2)n1 [Example 192]
6.50	CC1(C)CN(C(=O)c2noc(-c3ccccc3)n2)CCN1C(=O)c1ncn(-c2ccccc2)n1 [Example 139]
6.88	COc1cccc(C(=O)N2CCN(C(=O)c3nnn(-c4ccc(F)cc4)n3)C(C)(C)C2)n1 [Example 200]
6.53	Cc1ccc2oc(C(=O)N3CCN(C(=O)c4ncn(-c5cccc(Cl)c5)n4)C(C)(C)C3)c(C)c2c1 [Example 50]
6.69	CC1(C)CN(C(=O)c2cccc(C#N)n2)CCN1C(=O)c1ncn(-c2cccc(Cl)c2)n1 [Example 33]
5.95	CC(=O)Nc1ccc2oc(C(=O)N3CCN(C(=O)c4ncn(-c5ccccc5)n4)C(C)(C)C3)c(C)c2c1 [Example 133]
7.14	CC1(C)CN(C(=O)c2cccc(-c3nccs3)c2)CCN1C(=O)c1ncn(-c2cccc(Cl)c2)n1 [Example 26]
5.81	COCc1c(C(=O)N2CCN(C(=O)c3ncn(-c4cccc(Cl)c4)n3)CC2C)oc2ccccc12 (stereo not drawn) [Example 217]
